From patent US20260315475A1 (priority 2023, published 2026)
Structures can show the parent of a compound that is named as a salt.

Assays:
[1] = Phase I single-dose open-label pharmacokinetic study in participants with normal hepatic function and varying degrees of hepatic impairment; format: in vivo, human; conditions: for MRAUC (metabolite/parent ratio based on AUC): geometric mean (CV %); for tlast: plasma, single oral 200 mg belumosudil, fed, median
Description: The primary objective was to assess the pharmacokinetic (PK) of belumosudil following a single oral dose of belumosudil in participants with mild, moderate, or severe hepatic impairment compared to healthy participants with normal hepatic function.
The secondary objectives were: to evaluate the safety and tolerability of a single oral dose of belumosudil in participants with mild, moderate, or severe hepatic impairment, and in healthy participants with normal hepatic function; to assess the PK of the belumosudil metabolites following a single oral dose of belumosudil in participants with mild, moderate, or severe hepatic impairment compared to healthy participants with normal hepatic function.
Approximately 38 participants were to be enrolled into the following groups based on their hepatic function, as determined according to the Child-Pugh system. • Group 1 (n=approximately 16): matched healthy participants with normal hepatic function • Group 2 (n=8): participants with mild hepatic impairment (Child-Pugh Class A [score of 5 or 6]) • Group 3 (n=8): participants with moderate hepatic impairment (Child-Pugh Class B [score of 7 to 9]) • Group 4 (n=6): participants with severe hepatic impairment (Child-Pugh Class C [score of 10 to 14]).
Healthy participants with normal hepatic function (Group 1) were demographically matched by age (±10 years), sex, and body mass index (BMI; +20%) to participants with hepatic impairment (Groups 2, 3, and 4). Participants with normal hepatic function could be matched to multiple participants across the 3 hepatic impairment groups (mild, moderate, and severe), but could not be matched to more than 1 participant within the same impairment group.
Pharmacokinetic blood samples were obtained from predose until 48 hours postdose (Day 3).
Summary tables, mean (+standard deviation [SD]) figures, overlaying individual figures, and individual figures by hepatic function and time postdose were provided for plasma PK concentrations. Summary tables by hepatic function were provided for all PK parameters, with the exception of terminal phase regression-related diagnostic parameters (λz, λz upper, λ z lower, λz number of points, R2-adj, and % AUCextrap), which were listed only.
All other PK parameters were regarded as secondary and were not participant to inferential statistical analysis.

[2] = cited from earlier work
[3] = cited from earlier work; remark: listed apart in the source
[4] = healthy volunteers, per label; cited from earlier work
CYP3A4 = conditions: in vitro, high concentrations; cited from earlier work

O=C(O)COc1cccc(-c2nc(Nc3ccc4[nH]ncc4c3)c3ccccc3n2)c1 [KD025m2]
MRAUC (metabolite/parent ratio based on AUC) ([1]; mild hepatic impairment): 0.135 (73.8%) | MRAUC (metabolite/parent ratio based on AUC) ([1]; mild hepatic impairment, listed as KD025 m2): 0.135 (73.8) [8] | MRAUC (metabolite/parent ratio based on AUC) ([1]; moderate hepatic impairment): 0.318 (70.5%) | MRAUC (metabolite/parent ratio based on AUC) ([1]; moderate hepatic impairment, listed as KD025 m2): 0.318 (70.5) [7] | MRAUC (metabolite/parent ratio based on AUC) ([1]; normal hepatic function): 0.103 (68.8%) | MRAUC (metabolite/parent ratio based on AUC) ([1]; normal hepatic function, listed as KD025 m2): 0.103 (68.8) [14] | tlast ([1]; mild hepatic impairment): 23.9 h | tlast ([1]; moderate hepatic impairment): 48.0 h | tlast ([1]; normal hepatic function): 14.0 h | tlast ([1]; severe hepatic impairment): 48.0 h | MRAUC (metabolite/parent ratio based on AUC) ([1]; severe hepatic impairment): 0.680 (63.5%) | MRAUC (metabolite/parent ratio based on AUC) ([1]; severe hepatic impairment, listed as KD025 m2): 0.680 (63.5) [4]

CC(C)NC(=O)COc1cccc(-c2nc(Nc3ccc4[nH]ncc4c3)c3ccccc3n2)c1 [belumosudil mesylate, 2-{3-[4-(1H-indazol-5-ylamino)-2-quinazolinyl]phenoxy}-N-(propan-2-yl) acetamide methanesulfonate (1:1)]
solubility in DMF ([2]; DMF): slightly soluble | solubility in DMSO ([2]; DMSO): soluble | solubility in methanol ([2]; methanol): slightly soluble | solubility in water ([2]; water): practically insoluble

C=CC(=O)N1CCC[C@@H](n2nc(-c3ccc(Oc4ccccc4)cc3)c3c(N)ncnc32)C1 [ibrutinib]
overall response rate (ORR) ([3]; cGVHD patients with >25% body surface area erythematous rash or NIH mouth score >4): 67% | discontinuation rate because of TEAEs ([3]; cGVHD patients): 43%

CO[C@H]1/C=C/O[C@@]2(C)Oc3c(C)c(O)c4c(O)c(c5c(nc6cc(C)ccn65)c4c3C2=O)NC(=O)/C(C)=C\C=C\[C@H](C)[C@H](O)[C@@H](C)[C@@H](O)[C@@H](C)[C@H](OC(C)=O)[C@@H]1C [rifaximin]
drug-drug interaction (DDI) effects [4]: not shown to have drug-drug interaction (DDI) effects | CYP3A4 induction (CYP3A4): CYP3A4 inducer at high concentrations
